According to patent US10653698B2, “Methods of improving myocardial performance in Fontan patients using udenafil compositions” (priority 2014, dated 2020):

Legend:
clinical = details: human, in vivo
Procedure: The population PK analysis was performed using a non-linear mixed effects modeling approach. This approach estimates the typical value of parameters and their variances. It was assumed subjects were at steady state (SS): at a time (t) after dose (D) given at time tD after repeated administration of dose D given at interval τ (t≥tD) as PK samples/udenafil concentrations were taken on study day 6.
As only the drug administration at Day 6 was supplied, it is expected that the subjects have taken the drug at regular intervals at home; due to this a steady state flag will be tested to account for the doses which are not available. As stated, it is assumed steady state has been reached by Day 6, as previous studies of udenafil have stated that during multiple dosing, steady state is reached in 5 days, with apparently little additional accumulation occurring after dosing for 7 days. If there were missed doses during the study period prior to the PK sampling, this can affect the ability to determine whether steady state could be assumed or not for the PK profile. If two or more additional drug administration dates and times were available prior to the visit where the PK samples were taken, then a much better dosing profile could be used for analysis.
One- and two-compartment models were explored (based on literature and available data). The equation for the Input model for the drug described oral absorption. For the one-compartment model, the following equation may apply to the model:
The robustness of the final model was assessed in PDxPOP® 5 by bootstrap re-sampling (n=1000). Values obtained with the bootstrap (based on all runs with successful minimization) were compared to the parameter estimates from the final model. To evaluate the accuracy of the model predictions, normalized prediction distribution errors (NPDE) was performed.
One- and two-compartment models with oral absorption input were evaluated using initial estimates obtained from the literature as described above, and were explored to determine the potential structure of the model. The models were evaluated during the model building process by using objective function value, level of statistical significance, goodness of fit plots, and standard error.
The only covariate available for analysis was current body weight. Weight was tested as a fixed effect on typical values for clearance and volume of distribution (e.g., weight has a “fixed effect” on clearance). Median weight in the dataset was 65.3 kg. […]
During the model building process, a number of residual error models were evaluated. […]
Bootstrap re-sampling was undertaken to compare the parameter estimates from the final model with those determined following 1000 bootstrap runs. […]

[1] = tested on: adolescents with single ventricle physiology after Fontan palliation; assay: Exercise testing (peak VO2 at maximum effort, VO2 at anaerobic threshold); format: in vivo, human; details: for Peak VO2 at Anaerobic Threshold, Baseline measurement / Peak VO2 at Maximum Effort, Baseline measurement: day 1; for Peak VO2 at Anaerobic Threshold, Follow-up measurement / Peak VO2 at Maximum Effort, Follow-up measurement: post-medication, day 5
Text: Exercise testing can include assessment of VO2 values during maximal effort or at anaerobic threshold. VO2 max, or maximal oxygen consumption, refers to the maximum amount of oxygen that an individual can utilize during intense exercise. This measurement is generally considered a reliable indicator of cardiovascular fitness and aerobic endurance. Theoretically, the more oxygen a person can use during high level exercise, the more energy that person can produce. This test is the gold standard for cardiorespiratory fitness because muscles need oxygen for prolonged (aerobic) exercise; blood carries oxygen to the muscles and the heart must pump adequate amounts of blood to meet the demands of aerobic exercise. VO2 is often measured by putting a mask on a subject, and measuring the volume and gas concentrations of inhaled and expired air. This measurement is often used in both clinical settings and research and is considered the most accurate. Testing commonly involves either exercising on a treadmill or riding a bike at increasing intensity until exhaustion, and is designed to provide readings at a maximal effort of the subject and/or at the subject's anaerobic threshold. The purpose of this example was to evaluate the efficacy of the treatment protocol described in Example 1 using various exercise testing parameters. The primary outcome of this arm of the study was maximal VO2 as determined by exercise testing. Table 14 summarizes results for the key outcome from the exercise testing—peak VO2 (limited to the subjects who achieved maximum effort) by treatment group. Out of the 36 subjects enrolled in the trial, 33 reached max effort in the exercise testing at each of the time points, and 31 subjects at both time points. The first two lines present data for baseline and follow-up measurements, while the third line presents differences between the two measurements (change scores, the outcome for this aim). […] An additional outcome, VO2 at anaerobic threshold, was also measured. Similar analyses were performed for this outcome. Overall results are similar to those for maximal VO2.

ED patients = details: 50 mg or 75 mg once daily for 12 wk; cited from earlier work
[2] = cited from earlier work

CCCOc1ccc(S(=O)(=O)NCCC2CCCN2C)cc1-c1nc2c(CCC)nn(C)c2c(=O)[nH]1 (stereo not drawn) [udenafil]
Vd/F (clinical): 74 L
apparent clearance (CL/F/70 kg) (clinical): 36 L/h
inter-compartmental clearance (Q/F) (clinical): 21.1 L/h
peripheral volume of distribution (V3/F) (clinical): 181 L
Peak VO2 at Anaerobic Threshold, Difference, FU − BL ([1]; 37.5 mg daily): -0.5 ± 4.1 mL/min/kg
Peak VO2 at Maximum Effort, Difference, FU − BL ([1]; 37.5 mg daily): -0.8 ± 1.7 mL/min/kg
Peak VO2 at Anaerobic Threshold, Baseline measurement ([1]; 37.5 mg daily): 17.2 ± 5.0 mL/min/kg
Peak VO2 at Maximum Effort, Baseline measurement ([1]; 37.5 mg daily): 24.6 ± 6.9 mL/min/kg
Peak VO2 at Anaerobic Threshold, Follow-up measurement ([1]; 37.5 mg daily): 16.3 ± 2.0 mL/min/kg
Peak VO2 at Maximum Effort, Follow-up measurement ([1]; 37.5 mg daily): 24.7 ± 6.7 mL/min/kg
Peak VO2 at Anaerobic Threshold, Difference, FU − BL ([1]; 37.5 mg twice daily): 0.1 ± 1.0 mL/min/kg
Peak VO2 at Maximum Effort, Difference, FU − BL ([1]; 37.5 mg twice daily): -1.6 ± 5.1 mL/min/kg
Peak VO2 at Anaerobic Threshold, Baseline measurement ([1]; 37.5 mg twice daily): 18.0 ± 3.0 mL/min/kg
Peak VO2 at Maximum Effort, Baseline measurement ([1]; 37.5 mg twice daily): 30.4 ± 6.2 mL/min/kg
Peak VO2 at Anaerobic Threshold, Follow-up measurement ([1]; 37.5 mg twice daily): 18.1 ± 3.0 mL/min/kg
Peak VO2 at Maximum Effort, Follow-up measurement ([1]; 37.5 mg twice daily): 28.8 ± 8.1 mL/min/kg
Peak VO2 at Anaerobic Threshold, Difference, FU − BL ([1]; 87.5 mg daily): -1.1 ± 1.9 mL/min/kg
Peak VO2 at Maximum Effort, Difference, FU − BL ([1]; 87.5 mg daily): -1.4 ± 2.5 mL/min/kg
Peak VO2 at Anaerobic Threshold, Baseline measurement ([1]; 87.5 mg daily): 17.6 ± 5.3 mL/min/kg
Peak VO2 at Maximum Effort, Baseline measurement ([1]; 87.5 mg daily): 28.4 ± 6.2 mL/min/kg
Peak VO2 at Anaerobic Threshold, Follow-up measurement ([1]; 87.5 mg daily): 16.5 ± 4.8 mL/min/kg
Peak VO2 at Maximum Effort, Follow-up measurement ([1]; 87.5 mg daily): 27.1 ± 5.0 mL/min/kg
Peak VO2 at Anaerobic Threshold, Difference, FU − BL ([1]; 87.5 mg twice daily): -1.7 ± 2.1 mL/min/kg
Peak VO2 at Maximum Effort, Difference, FU − BL ([1]; 87.5 mg twice daily): 0.2 ± 5.0 mL/min/kg
Peak VO2 at Anaerobic Threshold, Baseline measurement ([1]; 87.5 mg twice daily): 18.3 ± 4.6 mL/min/kg
Peak VO2 at Maximum Effort, Baseline measurement ([1]; 87.5 mg twice daily): 28.0 ± 5.2 mL/min/kg
Peak VO2 at Anaerobic Threshold, Follow-up measurement ([1]; 87.5 mg twice daily): 16.5 ± 5.2 mL/min/kg
Peak VO2 at Maximum Effort, Follow-up measurement ([1]; 87.5 mg twice daily): 28.2 ± 6.0 mL/min/kg
Peak VO2 at Anaerobic Threshold, Difference, FU − BL ([1]; 125 mg daily): 1.2 ± 1.9 mL/min/kg
Peak VO2 at Maximum Effort, Difference, FU − BL ([1]; 125 mg daily): 0.9 ± 2.6 mL/min/kg
Peak VO2 at Anaerobic Threshold, Baseline measurement ([1]; 125 mg daily): 18.8 ± 1.8 mL/min/kg
Peak VO2 at Maximum Effort, Baseline measurement ([1]; 125 mg daily): 28.6 ± 3.0 mL/min/kg
Peak VO2 at Anaerobic Threshold, Follow-up measurement ([1]; 125 mg daily): 20.0 ± 3.2 mL/min/kg
Peak VO2 at Maximum Effort, Follow-up measurement ([1]; 125 mg daily): 28.6 ± 3.8 mL/min/kg
erectile function (ED patients): significantly improved
T1/2 ([2]; in vivo): 11 to 13 h
Tmax ([2]; in vivo): 1.0 to 1.5 h
half-life ([2]; in vivo): 7.3 to 12.1 h
time to steady state ([2]; multiple dosing, previous studies): 5 days
